Experiments:
[1] = target: Cholinesterase (Homo sapiens, UniProt P06276); experiment: Inhibitory potency was evaluated against isolated Butyrylcholinesterase
[2] = target: Acetylcholinesterase (Homo sapiens, UniProt P22303); experiment: Inhibitory potency was evaluated against recombinant human AChE
Acetylcholinesterase, sequence (P22303 whole entry): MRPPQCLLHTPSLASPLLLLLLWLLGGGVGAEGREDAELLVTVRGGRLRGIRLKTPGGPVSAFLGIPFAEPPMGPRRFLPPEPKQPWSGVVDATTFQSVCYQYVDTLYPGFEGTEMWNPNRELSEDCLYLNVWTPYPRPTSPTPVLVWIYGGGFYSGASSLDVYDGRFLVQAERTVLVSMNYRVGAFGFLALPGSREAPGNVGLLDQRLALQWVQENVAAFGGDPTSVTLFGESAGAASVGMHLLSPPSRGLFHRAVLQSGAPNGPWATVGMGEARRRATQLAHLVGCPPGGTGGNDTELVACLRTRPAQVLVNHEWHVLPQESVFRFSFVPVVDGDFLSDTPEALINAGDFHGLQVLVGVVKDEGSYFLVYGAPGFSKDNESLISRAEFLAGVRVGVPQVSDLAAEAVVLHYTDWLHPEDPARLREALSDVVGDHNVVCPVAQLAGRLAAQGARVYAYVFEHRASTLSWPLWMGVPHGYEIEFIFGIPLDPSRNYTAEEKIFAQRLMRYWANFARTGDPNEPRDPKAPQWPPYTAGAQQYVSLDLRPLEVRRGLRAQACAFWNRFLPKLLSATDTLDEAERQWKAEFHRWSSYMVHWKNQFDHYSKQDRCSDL

Cholinesterase, sequence (P06276 whole entry): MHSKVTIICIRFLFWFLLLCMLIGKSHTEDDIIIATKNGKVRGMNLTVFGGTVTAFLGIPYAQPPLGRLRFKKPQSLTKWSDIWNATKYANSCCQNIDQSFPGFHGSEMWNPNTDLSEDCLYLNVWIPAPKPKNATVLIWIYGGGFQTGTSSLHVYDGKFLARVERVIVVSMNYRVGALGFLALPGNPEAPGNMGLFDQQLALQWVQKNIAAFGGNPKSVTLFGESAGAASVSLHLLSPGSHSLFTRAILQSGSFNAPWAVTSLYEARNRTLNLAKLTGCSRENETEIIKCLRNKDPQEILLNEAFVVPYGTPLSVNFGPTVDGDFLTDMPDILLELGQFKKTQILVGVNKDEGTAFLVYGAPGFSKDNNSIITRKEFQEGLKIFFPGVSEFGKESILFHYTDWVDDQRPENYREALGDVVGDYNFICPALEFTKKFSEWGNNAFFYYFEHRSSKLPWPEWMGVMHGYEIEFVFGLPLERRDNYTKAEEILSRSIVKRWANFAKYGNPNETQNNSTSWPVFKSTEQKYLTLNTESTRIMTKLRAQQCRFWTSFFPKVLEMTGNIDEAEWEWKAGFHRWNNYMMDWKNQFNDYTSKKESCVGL

In the case of `COc1cc2cc(-c3ccc(CN(C)Cc4ccccc4)cc3)c(=O)oc2cc1OC`, the IC50 [1] is reported as 48900 nM, the IC50 [2] is reported as 44.5 nM and the Ki [2] is reported as 21.7 nM.

— ChEMBL document CHEMBL1145004, “3-(4-[[Benzyl(methyl)amino]methyl]phenyl)-6,7-dimethoxy-2H-2-chromenone (AP2238) inhibits both acetylcholinesterase and acetylcholinesterase-induced beta-amyloid aggregation: a dual function lead for Alzheimer's disease therapy” (J Med Chem, 2003)
